We go through ten compounds from ChEMBL document CHEMBL1201862, “PubChem BioAssay data set” (2004).

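Values below derive from 48-hour exposures of cells grown in 96-well plates, with endpoints linearly interpolated between the two concentrations bracketing the appropriate inhibition level. Here, GI50 denotes the concentration required for 50% inhibition of growth.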 The source made the active and inactive calls. No stated cut-off is given here; in the data, active = GI50 up to about 1.1 µM and inactive = higher. Some results are limits rather than exact numbers.

Some test systems named below: A498; A549; ACHN; CCRF-CEM; DU-145; HOP-92; MDA-MB-435; NCI-H226; NCI-H23; NCI/ADR-RES; OVCAR-3; OVCAR-4; OVCAR-5; PC-3; RPMI-8226; SK-MEL-5; SR; T47D; UACC-257; UACC-62.
Common to all, as to test: inhibition of tumour cell growth, NCI panel, 48 h

Take `CCCCCCc1cc2cc(C(=O)NCc3ccccc3)c(=N)oc2cc1O`: the GI50 in the experiment on A498, in the experiment with A549, in the experiment on ACHN, with CCRF-CEM, with DU-145 and with HOP-92 was > 100 µM (inactive) throughout. The GI50 with MDA-MB-435, in the experiment with NCI-H226, with NCI-H23, in the experiment with NCI/ADR-RES, with OVCAR-3 and in the experiment on OVCAR-4 was > 100 µM (inactive) throughout. Besides, the GI50 in the experiment on OVCAR-5, with PC-3, with RPMI-8226, with SK-MEL-5, in the experiment with SR and in the experiment on T47D was > 100 µM (inactive) in each case. Besides, the GI50 with UACC-257 and in the experiment with UACC-62 was > 100 µM (inactive) in each case.
With `O=C(O)c1ccc(Nc2cnc3ccc(C(F)(F)F)cc3n2)cc1`, the GI50 was 23.8 µM (inactive) in the experiment on A498; 13.4 µM (inactive) in the experiment on A549; 18 µM (inactive) in the experiment on ACHN; 15.6 µM (inactive) in the experiment on CCRF-CEM; 23.9 µM (inactive) in the experiment with DU-145; 15.5 µM (inactive) in the experiment on HOP-92. Moreover, the GI50 with MDA-MB-435 was 31.6 µM (inactive); in the experiment with NCI-H226, 14.2 µM (inactive); with NCI-H23, 17 µM (inactive); with NCI/ADR-RES, 32.7 µM (inactive); with OVCAR-3, 28.2 µM (inactive); with OVCAR-4, 18.9 µM (inactive). In addition, the GI50 in the experiment on OVCAR-5 is 32.6 µM (inactive); in the experiment with PC-3, 17.7 µM (inactive); in the experiment with RPMI-8226, 18.1 µM (inactive); with SK-MEL-5 it was 16.9 µM (inactive); in the experiment on SR, 20.4 µM (inactive); in the experiment with T47D, 6.07 µM (inactive). For the same compound, the GI50 in the experiment with UACC-257 is 32.7 µM (inactive); with UACC-62 it was 14 µM (inactive).
With `O=C1c2cc3ccccc3cc2C2(c3ccc(Cl)cc3)NCCN12` (stereo not given), the GI50 is 77.3 µM (inactive) in the experiment on A498; 28.4 µM (inactive) in the experiment with A549; 33 µM (inactive) in the experiment with ACHN; 33 µM (inactive) in the experiment on CCRF-CEM; 40.6 µM (inactive) in the experiment with DU-145; 34.4 µM (inactive) in the experiment on HOP-92. The GI50 was 33 µM (inactive) with MDA-MB-435; 34.5 µM (inactive) in the experiment on NCI-H226; 22.1 µM (inactive) in the experiment on NCI-H23; 32.8 µM (inactive) in the experiment on NCI/ADR-RES; 23.6 µM (inactive) with OVCAR-3; 52.5 µM (inactive) in the experiment with OVCAR-4. The GI50 in the experiment on OVCAR-5 was 21.5 µM (inactive); with PC-3 it was 31.1 µM (inactive); in the experiment on RPMI-8226 it was 29.4 µM (inactive); with SK-MEL-5 it was 20 µM (inactive); in the experiment on SR, 29 µM (inactive); in the experiment with T47D it was 39.7 µM (inactive). Besides, the GI50 in the experiment with UACC-257 was 31.8 µM (inactive); in the experiment with UACC-62, 19.2 µM (inactive).
With `O=C(O)c1nc2cc(C(F)(F)F)ccc2[nH]c1=O`, the GI50 in the experiment on A498, in the experiment on A549, in the experiment on ACHN, with CCRF-CEM, in the experiment with DU-145 and in the experiment with HOP-92 was > 100 µM (inactive) each time. The GI50 in the experiment on MDA-MB-435, in the experiment on NCI-H226, with NCI-H23, in the experiment with NCI/ADR-RES, in the experiment with OVCAR-3 and in the experiment on OVCAR-4 was > 100 µM (inactive) in each case. Besides, the GI50 in the experiment with OVCAR-5, in the experiment on PC-3, with RPMI-8226, in the experiment on SK-MEL-5, in the experiment on SR and in the experiment on T47D was > 100 µM (inactive) throughout. Moreover, the GI50 with UACC-257 and with UACC-62 was > 100 µM (inactive) each time.
Regarding `CCOC(=O)C(=O)C(CCC(=O)c1ccc2ccccc2c1O)C(=O)OCC` (stereo not given), the GI50 in the experiment with A498, in the experiment on A549, in the experiment with ACHN, in the experiment with CCRF-CEM, in the experiment with DU-145 and with HOP-92 was > 100 µM (inactive) each time. Moreover, the GI50 in the experiment on MDA-MB-435 was > 100 µM (inactive); in the experiment with NCI-H226 it was 38.5 µM (inactive); in the experiment with NCI-H23, > 100 µM (inactive); in the experiment on NCI/ADR-RES, > 100 µM (inactive); in the experiment with OVCAR-3 it was > 100 µM (inactive); with OVCAR-4, > 100 µM (inactive). The GI50 with OVCAR-5, in the experiment with PC-3, in the experiment on RPMI-8226, with SK-MEL-5, in the experiment on SR and with T47D was > 100 µM (inactive) each time. Moreover, the GI50 in the experiment on UACC-257 and with UACC-62 was > 100 µM (inactive) in each case.
For `CNc1nc2c(C)ccc3nc(N(C)C)[nH]c3c-2n1`, the GI50 in the experiment on A498 was 85.1 µM (inactive); in the experiment with A549, 39.9 µM (inactive); in the experiment on ACHN, 15.2 µM (inactive); in the experiment on CCRF-CEM it was 81.8 µM (inactive); in the experiment with DU-145, 42.2 µM (inactive); in the experiment with HOP-92, > 100 µM (inactive). Moreover, the GI50 with MDA-MB-435 is 50.8 µM (inactive); with NCI-H226, 76.7 µM (inactive); in the experiment on NCI-H23 it was 32.9 µM (inactive); in the experiment with NCI/ADR-RES, 77.1 µM (inactive); in the experiment on OVCAR-3, 82.2 µM (inactive); with OVCAR-4, 19.5 µM (inactive). The GI50 in the experiment with OVCAR-5 was 74.8 µM (inactive); in the experiment with PC-3 it was 46.9 µM (inactive); in the experiment on RPMI-8226, 20.7 µM (inactive); in the experiment on SK-MEL-5, 20.7 µM (inactive); in the experiment with SR it was 43.8 µM (inactive); with T47D, 46.6 µM (inactive). Moreover, the GI50 is 33.3 µM (inactive) in the experiment on UACC-257 and 68.7 µM (inactive) in the experiment with UACC-62.
`CC(=O)NNC1=NN(C(C)=O)C2(S1)C(=O)Nc1ccc(C)cc12` (stereo not given): the GI50 with A498 is 38.1 µM (inactive); with A549 it was 94 µM (inactive); in the experiment on ACHN, 34.2 µM (inactive); in the experiment with CCRF-CEM it was 48.4 µM (inactive); with DU-145, > 100 µM (inactive); in the experiment with HOP-92, 29 µM (inactive). Also, the GI50 in the experiment on MDA-MB-435 was > 100 µM (inactive); with NCI-H226, > 100 µM (inactive); in the experiment on NCI-H23, > 100 µM (inactive); in the experiment with NCI/ADR-RES, > 100 µM (inactive); in the experiment with OVCAR-3 it was > 100 µM (inactive); in the experiment with OVCAR-4, 88.1 µM (inactive). The GI50 was > 100 µM (inactive) in the experiment with OVCAR-5; 67.5 µM (inactive) in the experiment on PC-3; 34.8 µM (inactive) in the experiment on RPMI-8226; 68.5 µM (inactive) in the experiment with SK-MEL-5; 55.5 µM (inactive) in the experiment with SR; 23 µM (inactive) in the experiment on T47D. The values for the GI50 in the experiment on UACC-257 and in the experiment on UACC-62 were > 100 µM (inactive) and 39.4 µM (inactive), respectively.
With `C/C(=N\NC(=S)NC(C)(C)C)c1nc2cccnc2[nH]1`, the GI50 with A498 is 18.6 µM (inactive); in the experiment on A549, 3.29 µM (inactive); in the experiment with ACHN, 2.82 µM (inactive); in the experiment on CCRF-CEM, 0.955 µM (active); in the experiment with DU-145, 2.43 µM (inactive); with HOP-92, 1.47 µM (inactive). For the same compound, the GI50 was 5.37 µM (inactive) in the experiment with MDA-MB-435; 3.4 µM (inactive) with NCI-H226; 8.26 µM (inactive) in the experiment with NCI-H23; 3.03 µM (inactive) in the experiment with NCI/ADR-RES; 0.384 µM (active) in the experiment on OVCAR-3; 0.634 µM (active) in the experiment on OVCAR-4. Moreover, the GI50 in the experiment with OVCAR-5 is 1.14 µM (inactive); with PC-3 it was 7.93 µM (inactive); in the experiment on RPMI-8226, 6.05 µM (inactive); in the experiment with SK-MEL-5, 2.21 µM (inactive); with SR it was 4.9 µM (inactive); with T47D it was 0.427 µM (active). In addition, the figures for the GI50 with UACC-257 and in the experiment with UACC-62 were 3.09 µM (inactive) and 2.57 µM (inactive), respectively.
For `COC(=O)CC1c2ccccc2N2C(=O)Cc3c([nH]c4ccccc34)C12` (stereo not given), the GI50 was > 100 µM (inactive) in the experiment on A498; > 100 µM (inactive) in the experiment on A549; > 100 µM (inactive) with ACHN; > 100 µM (inactive) in the experiment on CCRF-CEM; > 100 µM (inactive) in the experiment with DU-145; 55.8 µM (inactive) with HOP-92. Further, the GI50 with MDA-MB-435 was > 100 µM (inactive); with NCI-H226 it was > 100 µM (inactive); with NCI-H23 it was > 100 µM (inactive); in the experiment with NCI/ADR-RES it was > 100 µM (inactive); in the experiment with OVCAR-3 it was > 100 µM (inactive); in the experiment with OVCAR-4 it was 31.4 µM (inactive). The GI50 in the experiment with OVCAR-5, in the experiment on PC-3, in the experiment with RPMI-8226, in the experiment on SK-MEL-5, with SR and in the experiment with T47D was > 100 µM (inactive) throughout. Further, the GI50 in the experiment with UACC-257 and in the experiment on UACC-62 was > 100 µM (inactive) throughout.
As for `CCOC(=O)P(=O)(O)c1ccc(N(C)Cc2ccccc2)cc1`, the GI50 in the experiment with A498, with A549, with ACHN, with CCRF-CEM, in the experiment with DU-145 and in the experiment on HOP-92 was > 100 µM (inactive) throughout. In addition, the GI50 in the experiment on MDA-MB-435, with NCI-H226, in the experiment on NCI-H23, in the experiment with NCI/ADR-RES, in the experiment on OVCAR-3 and in the experiment with OVCAR-4 was > 100 µM (inactive) in each case. The GI50 in the experiment with OVCAR-5, in the experiment on PC-3, in the experiment on RPMI-8226, in the experiment with SK-MEL-5, in the experiment on SR and in the experiment on T47D was > 100 µM (inactive) throughout. In addition, the GI50 in the experiment with UACC-257 and with UACC-62 was > 100 µM (inactive) each time.
